# Assay results reported in patent US8637493B2, “Methods for treating glioblastoma” (University of Massachusetts, priority 2009, dated 2014).
# Several values for one entry are separate records, joined by “and”; a condition that tells them apart may be missing. Identical values can stand only once.
# Tests used:
# [1] = test system: U87NS; experiment: Neurosphere formation / recovery / secondary neurosphere assay, U87NS; assay type: cell-based, human
# Experimental: (§1) The effect of chemotherapy on neurosphere formation was assayed in glioma neurosphere cultures. Cultures are treated with a single dose of the agent, e.g., TMZ and multiple doses of a GSI, e.g., DAPT to inhibit the Notch pathway. After the Treatment phase, the number of initial spheres (counted about 7 days after TMZ treatment) represents the number of proliferating CSC/progenitors (FIG. 1 for schematic). Recovery (counted 14 days after TMZ treatment) includes enlargement of the initial spheres and new spheres formed when CSC/progenitor cells quiescent as a result of chemotherapy resume cell proliferation. […] The cells used included U87NS, a neurosphere culture converted to neurosphere growth in defined medium from U87MG (an old Swedish line that is grown in conventional serum conditions); GS7-2, GS8-26 and GS6-22 primary neurosphere cultures that were obtained from grade IV GBM patient tumor samples and AS5-15, which was obtained from a grade III anaplastic astrocytoma.
# (§2) To determine the effects of TMZ plus DAPT neurospheres, cells were plated as previously described (Mihaliak et al., Cancer Letts. 296, 168-177 (2010)). Immediately after plating, cells were treated with DMSO, DAPT-only, LY411,575 (LY)-only TMZ-only, TMZ+DAPT or TMZ+LY. The initial neurospheres were counted on day 7 for the converted cell lines and on day 10 for the slower growing primary lines. Neurosphere recovery was measured on day 14 or 20. The neurospheres were dissociated, re-plated and secondary neurosphere formation was measured on day 21 or 30.
# (§3) Neurosphere cultures were dissociated to single cell suspensions by pH dissociation followed by filtration through 40 μm screens. For the neurosphere assay, 3,000 cells/ml of defined medium were seeded in 6-well plates. Immediately after plating, cells were treated with DMSO (Research Organics, Cleveland, Ohio) carrier control, TMZ-only, DAPT-only, or TMZ+DAPT. Additional DAPT was added on days 2 and 4. Neurospheres consisting of 10 or more cells were counted under a light microscope on day 7 for the converted cell lines. Primary lines have a slightly longer doubling time and were counted on day 10. After counting the neurospheres from the initial treatment, 2 ml of fresh defined medium was added to each well. DAPT was also added once more to the DAPT-only and TMZ+DAPT samples, and the cells were incubated for an additional 7 or 10 days. Neurospheres from the recovery period were counted on day 14 or day 20. To analyze secondary neurosphere formation, cells were collected, pelleted and dissociated to a single cell suspension by the pH method. Cells from each well were re-seeded into 6-well plates with 2 ml of defined medium. The number of secondary neurospheres formed by converted cell lines and primary cultures were counted on day 21 or day 30, respectively. All recovery assays were repeated with a minimum of 6 replicate sets of time points.
# (§4) For the samples labeled “PRE-treat”, a single dose of DAPT was administered when the cells were plated, and then TMZ was added to the medium 24 hours later. For the “CO-treat” samples, single doses of TMZ and DART were added simultaneously when the cells were plated. Finally, samples labeled “POST-treat” were treated with TMZ, and then DAPT was added 24 hours later.
# [2] = test system: U373NS; experiment: Neurosphere formation / recovery / secondary neurosphere assay, U373NS; assay type: cell-based, human
# Experimental: as §1, §2, §3
# [3] = test system: GS7-2; experiment: Neurosphere formation / recovery / secondary neurosphere assay, GS7-2; assay type: cell-based, human
# Experimental: as §1, §2, §3, §4
# [4] = test system: U87NS cells; experiment: Ex vivo treated cells, subcutaneous xenograft tumor initiation, U87NS; assay type: in vivo, nude mice
# Experimental: U87NS cells were treated in vitro as follows. The cells were dissociated and 2.5×10^4 cells/ml were plated defined media and treated with DMSO, TMZ-only (200 μM), DAPT-only (1 μM or 5 μM), or TMZ+DAPT as described for recovery assays (FIG. 8A and Table 1). After 7 days, 2.5×10^5 live cells were counted using trypan blue and re-suspended in 100 μl PBS and subcutaneously injected into nude mice. Mice were monitored for tumor formation for up to 120 days post-injection and euthanized when tumors reached volumes of 1.5 to 2 cm3. Tumor initiation was observed when a palpable tumor formed. […] Impressively, none of the mice injected with TMZ+DAPT treated cells (0/7 mice) formed tumors, even after 90 days. When a higher number of live U87NS cells (3×10^6) were injected, we saw a similar trend (Table 1). Mice with 3×10^6 cells for U87NS DMSO (2/2 mice) and DAPT-only (2/2 mice) xenografts developed palpable tumors at 3 and 4 days, respectively, and 3/4 mice formed tumors in TMZ-only treated cells with an average latency of 25 days. With this higher number of cells injected, U87NS TMZ+DAPT xenografts formed tumors in only 1/4 mice with a longer latency of 43 days.
# (§5) U87NS and U373NS neurospheres were dissociated and 2.5×10^4 cells/ml were plated in defined media and treated with DMSO, TMZ-only (200 μM), DAPT-only (1 μM or 5 μM), or TMZ+DAPT as described for recovery assays. After 7 days, 3×10^6 live cells were counted using trypan blue and re-suspended in 100 μl PBS. Cells were subcutaneously injected into the flanks of nude mice. Mice were monitored for tumor formation for up to 120 days post-injection and euthanized when tumors reached volumes of 1.5 to 2 cm^3.
# [5] = test system: U373NS; experiment: Ex vivo treated cells, subcutaneous xenograft tumor initiation, U373NS; assay type: in vivo, nude mice; details: 3 × 10^6 live cells injected, TMZ 200 μM, DAPT 5 μM
# Experimental: as §5
# as §5, with “U373NS” for “U87NS and U373NS”, “(FIG. 8B and Table 1).” for “as described for recovery assays.”, “cm^3. The control DMSO cells formed palpable tumors in an average of 15 days for 7/7 xenografts, and DAPT-only treated cells formed tumors in an average of 16 days for 7/7 xenografts. […] Palpable tumors formed for 6/7 TMZ-treated U373NS xenografts in an average of 43 days. […] Only 1/7 mice formed a tumor in the TMZ+DAPT U373NS xenografts with an extended latency of 96 days.” for “cm^3.”
# [6] = test system: U87NS, U373NS, GS7-2 and GS8-26; experiment: Neurosphere recovery assay, initial neurospheres, range over all cultures; assay type: cell-based, human; details: day 7 or 10
# Experimental: as §2
# Neurosphere cultures were dissociated to single cell suspensions by pH dissociation followed by filtration through 40 μm screens. For the neurosphere assay, 3,000 cells/ml of defined medium were seeded in 6-well plates. Immediately after plating, cells were treated with DMSO (Research Organics, Cleveland, Ohio) carrier control, TMZ-only, DAPT-only, or TMZ+DAPT. Additional DAPT was added on days 2 and 4. Neurospheres consisting of 10 or more cells were counted under a light microscope on day 7 for the converted cell lines. Primary lines have a slightly longer doubling time and were counted on day 10. […] Neurospheres from the recovery period were counted on day 14 or day 20. […] The number of secondary neurospheres formed by converted cell lines and primary cultures were counted on day 21 or day 30, respectively. […]
# [7] = in vivo; cited from earlier work
# [8] = Toxicity by body weight during drug administration
# Experimental: Tolerance of the drug treatments was determined by measuring the weight of the mice during the period of drug administration.
# During drug administration, toxicity was determined by weight loss.
# [9] = 10 μM DAPT alone, counted day 7
# [10] = low concentrations (1-5 μM) DAPT-only, day 7
# [11] = 2.5 × 10^5 live cells injected, TMZ 200 μM, DAPT 1 μM
# [12] = secondary neurospheres divided by recovery neurospheres
smiles,measurement,setting,value
"C[C@H](NC(=O)Cc1cc(F)cc(F)c1)C(=O)N[C@H](C(=O)OC(C)(C)C)c1ccccc1 [DAPT, N-[N-(3,5-difluorophenacetyl)-L-alanyl]-(S)-phenylglycine t-butyl ester]",decrease of neurosphere formation compared to DMSO controls,[1]; [9],41%
same,inhibition of neurosphere formation,[1]; [10],minimal inhibition
same,decrease of neurosphere formation compared to DMSO controls,[2]; [9],39%
same,inhibition of neurosphere formation,[2]; [10],minimal inhibition
same,decrease of neurosphere formation compared to DMSO controls,"[3]; 10 μM DAPT alone, counted day 10",49%
same,inhibition of neurosphere formation,"[3]; low concentrations (1-5 μM) DAPT-only, day 10",minimal inhibition
same,Ex vivo Treated Xenograft Average Latency,[4]; [11],14 days
same,Ex vivo Treated Xenograft Incidence,[4]; [11],7/7
same,Ex vivo Treated Xenograft Average Latency,[4]; 3 × 10^6 live cells injected,4 days
same,Ex vivo Treated Xenograft Incidence,[4]; 3 × 10^6 live cells injected,2/2
same,Ex vivo Treated Xenograft Average Latency,[5],16 days
same,Ex vivo Treated Xenograft Incidence,[5],7/7
"Cn1nnc2c(C(N)=O)ncn2c1=O [TMZ, temozolomide]",secondary neurosphere formation relative to DAPT POST-treatment,"[1]; TMZ-only treatment, P<0.001",5.7 fold
same,recovery: increase in the number of neurospheres,"[1]; day 14 relative to day 7, TMZ 200 μM, DAPT 1 μM",2 fold
same,"secondary neurosphere formation, TMZ-only treated culture relative to TMZ+DAPT treated culture","[1]; day 21, P<0.0001",36 fold
same,average number of cells per neurosphere capable of self-renewal,[1]; [12],8 cells per neurosphere
same,recovery: increase in the number of neurospheres,"[2]; day 14 relative to day 7, TMZ 200 μM, DAPT 5 μM",1.5 fold
same,"secondary neurosphere formation, TMZ-only treated culture relative to TMZ+DAPT treated culture","[2]; day 21, P<0.001",23 fold
same,average number of cells per neurosphere capable of self-renewal,[2]; [12],3 cells per neurosphere
same,secondary neurosphere formation relative to DAPT POST-treatment,"[3]; TMZ-only treatment, P<0.0001",85.7 fold
same,recovery: increase in the number of neurospheres,"[3]; day 20 relative to day 10, DAPT 1 μM",1.8 fold
same,"secondary neurosphere formation, TMZ-only treated culture relative to TMZ+DAPT treated culture","[3]; day 30, P<0.001",45 fold
same,average number of cells per neurosphere capable of self-renewal,[3]; [12],38 cells per neurosphere
same,decrease of initial neurosphere formation,[6],80-98%
same,Ex vivo Treated Xenograft Average Latency,[4]; [11],32 days
same,Ex vivo Treated Xenograft Incidence,[4]; [11],6/7
same,Ex vivo Treated Xenograft Average Latency,[4]; 3 × 10^6 live cells injected,25 days
same,Ex vivo Treated Xenograft Incidence,[4]; 3 × 10^6 live cells injected,3/4
same,Ex vivo Treated Xenograft Average Latency,[5],43 days and 45 days
same,Ex vivo Treated Xenograft Incidence,[5],6/7
same,concentration of TMZ in the cerebral spinal fluid,[7],about 5 μM
same,"body weight, initially after TMZ injections",[8],slight weight loss
same,"body weight, remainder of treatment / final weight",[8],no significant weight difference
